Measurements published in PubChem BioAssay (NCI).
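96-well plates; 48 h exposure; 5 concentrations. Endpoints by linear interpolation between flanking doses. Not reached: highest tested concentration assigned. TGI denotes the concentration required for complete inhibition of growth.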

Assays:
Assay in all cases: DTP human tumour cell line panel, 48 h
[1] = system: SF-539 CNS
[2] = system: DMS 114 small cell lung
[3] = system: K-562 leukemia
[4] = system: U251 CNS
[5] = system: A549 NSCLC
[6] = system: HOP-18 NSCLC
[7] = system: HCT-116 colon
[8] = system: SNB-78 CNS
[9] = system: HL-60(TB) leukemia
[10] = system: SK-MEL-28 melanoma
[11] = system: OVCAR-8 ovarian
[12] = system: SF-268 CNS
[13] = system: KM12 colon
[14] = system: NCI-H23 lung
[15] = system: HCT-15 colon
[16] = system: RPMI-8226 leukemia
[17] = system: SW-620 colon
[18] = system: SK-MEL-2 melanoma
[19] = system: M14 melanoma
[20] = system: SNB-75 CNS
[21] = system: HCC-2998 colon
[22] = system: OVCAR-5 ovarian
[23] = system: 786-0 renal
[24] = system: EKVX NSCLC
[25] = system: RXF 393 renal
[26] = system: IGROV1 ovarian
[27] = system: M19-MEL melanoma
[28] = system: OVCAR-3 ovarian
[29] = system: ACHN renal
[30] = system: SN12C renal
[31] = system: SK-OV-3 ovarian
[32] = system: HOP-92 NSCLC
[33] = system: DLD-1 colon
[34] = system: DMS 273 small cell lung
[35] = system: LOX IMVI melanoma
[36] = system: COLO 205 colon
[37] = system: NCI-H226 lung
[38] = system: SK-MEL-5 melanoma
[39] = system: MOLT-4 leukemia
[40] = system: KM20L2 colon
[41] = system: TK-10 renal
[42] = system: UACC-62 melanoma
[43] = system: UACC-257 melanoma
[44] = system: NCI-H460 lung
[45] = system: LXFL 529 NSCLC
[46] = system: UO-31 renal
[47] = system: SF-295 CNS
[48] = system: HT29 colon
[49] = system: OVCAR-4 ovarian
[50] = system: XF 498 CNS
[51] = system: SNB-19 CNS
[52] = system: NCI-H522 lung
[53] = system: MALME-3M melanoma
[54] = system: CCRF-CEM leukemia
[55] = system: SR leukemia
[56] = system: HOP-62 NSCLC
[57] = system: A498 renal
[58] = system: CAKI-1 renal

Measured: TGI

Cc1cn(C2CC(n3cncn3)C(C(C)O)O2)c(=O)[nH]c1=O (centres undefined)
not listed: [55] | [56] | [57] | [58]
> 100 µM: all other assays above

CC(=O)N(C)c1ccc2ncccc2c1[N+](=O)[O-]
not listed: [4] | [31] | [36] | [52]
> 100 µM: all other assays above

Cc1cccc(-c2nnc3s/c(=C\c4ccc5c(c4)OCO5)c(=O)n23)c1
not listed: [48] | [55]
> 100 µM: all other assays above
